# Test results as given in PMC5294416, “Novel peptides for deciphering structural and signalling functions of E-cadherin in mouse embryonic stem cells” (Scientific Reports, 2017).
# Primed or numbered codes have the meaning given here. Ends that are not written are not given here. FITC′ = fluorescein-5(6)-isothiocyanate; Nova linker = not defined here
# T1: His-tagged Recombinant Mouse E-Cadherin Fc Chimera, P09803
# T1 chain: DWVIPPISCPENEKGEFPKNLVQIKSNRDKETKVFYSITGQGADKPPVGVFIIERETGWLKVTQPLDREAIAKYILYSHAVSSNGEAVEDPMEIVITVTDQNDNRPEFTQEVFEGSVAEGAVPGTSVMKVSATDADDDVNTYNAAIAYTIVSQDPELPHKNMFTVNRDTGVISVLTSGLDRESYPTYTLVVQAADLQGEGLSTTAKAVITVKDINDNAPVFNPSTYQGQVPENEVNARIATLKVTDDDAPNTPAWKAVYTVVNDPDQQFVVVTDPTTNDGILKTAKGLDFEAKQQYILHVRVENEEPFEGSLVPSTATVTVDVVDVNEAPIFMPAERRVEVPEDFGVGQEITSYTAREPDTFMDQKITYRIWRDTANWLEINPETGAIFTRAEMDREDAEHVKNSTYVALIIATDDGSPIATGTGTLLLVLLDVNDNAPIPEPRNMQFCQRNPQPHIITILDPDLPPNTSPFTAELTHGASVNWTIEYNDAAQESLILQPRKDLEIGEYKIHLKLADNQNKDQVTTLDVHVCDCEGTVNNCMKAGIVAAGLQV
# B1: EpepP7R (peptide)
# peptide: SWELYYRLRANL
# B2: Epep (E-cadherin binding peptide H-…-NH2) S1A (peptide)
# chain: AWELYYPLRANL
# What was measured:
# [1] = system: OCT4 protein in wtD3 mESCs; experiment: Immunofluorescence microscopy analysis of OCT4 protein expression with pathway inhibitors; format: cell-based, mouse; settings: for OCT4 protein expression, inhibitor with vehicle control: wtD3 mESCs, no peptide, after 5 days
# Method: (§1) Unless otherwise stated, mESC lines were grown on gelatinised tissue culture grade 6-well plates at 37 °C/5% CO2, as previously described. mESCs cells were treated with 10 μM peptide in mESC culture medium which was replenished every 24 h. Inhibition of specific pathways in mESCs was achieved by incubation with 10 μM LY294002 (PI3K inhibitor), PD9805 (MEK inhibitor) and SB431542 (TGFβ1 R inhibitor).
# (§2) Monolayer cultured mESCs were fixed in situ in 4% w/v PFA in PBS for 30 minutes at room temperature, washed twice with PBS and blocked with 1% goat serum in 0.1% w/v BSA, 0.1% Triton X-100 in PBS for 30 minutes. Cells were incubated in the appropriate primary antibody in goat blocking buffer for two hours at RT. Cells were washed three times in PBS and incubated in the appropriate Alexa fluor-488 or −546 conjugated secondary antibody at RT for 1 hour in the dark. Cells were washed three times with PBS, mounted in 4′6-diamidino-2-phenylindole (DAPI) (Vector Laboratories) and visualized using a Leica DM6000B fluorescence microscope (Leica Microsystems) and processed using Leica LAS X Core software (Leica Microsystems). Primary antibodies: anti-Nanog, 1:200 dilution (ab80892, Abcam Plc, Cambridge, UK); anti-Oct4, 1:200 dilution (ab19857, Abcam Plc, Cambridge, UK). For immunofluorescence microscopy analysis of fluorescent-tagged peptides, cells were incubated in 500 μM peptide in cell culture medium for 15 minutes, washed twice in ice cold PBS and mounted with Vectorshield containing DAPI. Cells were visualized using a Leica DM6000B fluorescence microscope (Leica Microsystems) and processed using Leica LAS X Core software (Leica Microsystems).
# (§3) Images were imported into ImageJ and fluorescence intensity measured using the Analyse > Measure function on areas selected using the rectangular or oval selection icons.
# wtD3 and Ecad−/− mESCs = experiment: Binding of fluorescent-tagged peptides to wtD3 versus Ecad−/− mESCs; format: cell-based, mouse; settings: fluorescein-tagged peptide, 500 μM, 15 minutes, 37 °C, immunofluorescence microscopy / flow cytometry
# Method: D3 and Ecad^−/− mESCs were treated with Epep-F or EpepW2R-F at concentrations of 0 (control), 5, 10, 25, 50 and 500 μM in culture medium as a monolayer on ice. Ice cold conditions were utilised to minimise endocytosis of fluorescent tagged peptide. Cells were harvested using cell dissociation buffer, centrifuged and washed with PBS and fixed in 500 μl 1% w/v paraformaldehyde (PFA) in PBS for analysis using a FACSCalibur (BD Biosciences, California, USA). Viable cells were gated using forward scatter and side scatter and all data shown represents quantification of the fluorescence emitted by this population.
# Monolayer cultured mESCs were fixed in situ in 4% w/v PFA in PBS for 30 minutes at room temperature, washed twice with PBS and blocked with 1% goat serum in 0.1% w/v BSA, 0.1% Triton X-100 in PBS for 30 minutes. Cells were incubated in the appropriate primary antibody in goat blocking buffer for two hours at RT. […] Cells were washed three times with PBS, mounted in 4′6-diamidino-2-phenylindole (DAPI) (Vector Laboratories) and visualized using a Leica DM6000B fluorescence microscope (Leica Microsystems) and processed using Leica LAS X Core software (Leica Microsystems). […] Cells were visualized using a Leica DM6000B fluorescence microscope (Leica Microsystems) and processed using Leica LAS X Core software (Leica Microsystems). […]
# wtD3 mESCs [2] = experiment: Loss of cell-cell contact, phase contrast microscopy; format: cell-based, mouse; settings: for Effect on cell-cell contact (in words): wtD3 mESCs, 10 μM peptide, 24 h, phase contrast
# Method: as §1
# [3] = molecular target: T2, recombinant mouse E-Cadherin Fc Chimera (Mus musculus, UniProt P09803); experiment: Biacore SPR equilibrium binding analysis (affinity capture); settings: equilibrium analysis using affinity capture on HTE chip, peptide stock in water, average of three runs, running buffer HBS/0.02% Tween/2 mM CaCl2/1 mM MgCl2
# T2 construct: purchased R&D Systems
# Method: Biacore SPR analysis was used to measure the interaction between peptides and recombinant mouse E-Cadherin Fc Chimera (R&D Systems). Analytes were passed over an HTE chip with surface bound His-tagged Recombinant Mouse E-Cadherin Fc Chimera (R&D Systems). The kinetics of interaction, i.e. the rates of complex formation (ka) and dissociation (kd), were determined and Integrin α4β7 protein was used as a control. Analysis was performed by the Biomolecular Analysis Core Facility (The University of Manchester, UK) on a Proteon XPR-36 protein interaction array system (Bio-Rad) using a HTE chip for high capacity His-tagged protein capture (Bio-Rad). Equilibrium analysis runs were performed three times and an average KD was calculated. Running buffer: HBS/0.02%, Tween/2 mM, CaCl2/1 mM MgCl2.
# [4] = system: NANOG protein in wtD3 mESCs; experiment: Immunofluorescence microscopy analysis of NANOG protein expression; format: cell-based, mouse; settings: 96 h / 4 days where stated
# Method: as §2, with “For immunofluorescence microscopy analysis of fluorescent-tagged peptides, cells were incubated in 500 μM peptide in cell culture medium for 15 minutes, washed twice in ice cold PBS and mounted with Vectorshield containing DAPI.” left out
# as §3
# mESCs = experiment: Cell viability in monolayer culture; format: cell-based, mouse; settings: data not shown
# pERK1/2 in wtD3 mESCs = experiment: Western blot analysis of phosphorylated ERK1/2; format: cell-based, mouse
# [5] = system: STAT3 phosphorylation in wtD3 mESCs; experiment: Western blot analysis of phosphorylated STAT3; format: cell-based, mouse; settings: wtD3 mESCs vs control treated cells, western blot
# Method: as §1
# Cells were harvested using cell dissociation buffer, centrifuged and washed with PBS prior to lysis using Radioimmunoprecipitation (RIPA) buffer (Sigma) containing protease inhibitor cocktail tablets (1 tablet per 10 ml RIPA buffer) (Roche Applied Science) at a concentration of 2 × 10^7 cell/ml. Lysates were separated by SDS-PAGE and electrotransferred onto nitrocellulose membrane as previously described. The membrane was probed using the appropriate primary antibody with subsequent incubation with HRP-conjugated secondary antibody. The membrane was exposed to an autoradiographic film (Hyperfilm ECL, GE Healthcare, Amersham, UK) for the appropriate time period in an X-ray cassette before the film was manually developed in a dark room using Kodak GBX developer and fixer solutions (Sigma, Dorset, UK). Primary antibodies: anti-α-tubulin, 1:2000 dilution (T9026, Sigma, Dorset, UK); anti-AKT, 1:200 dilution (#9272, Cell Signalling Technology, MA, USA); anti-pAKT (Ser473), 1:200 (#4060S, Cell Signalling Technology, MA, USA); anti-STAT3, 1:200 dilution (SC-482, Santa Cruz Biotechnology Inc, TX, USA); anti-pSTAT3, 1:200 dilution (#9138S, Cell Signalling Technology, MA, USA).
# [6] = system: Nanog, Klf4, Tbx3, Esrrb, Nr0b1, Nr5a2 and Tet1 transcripts in wtD3 mESCs; experiment: qPCR analysis of pluripotency transcript expression; format: cell-based, mouse
# Method: as §1
# Primers for qPCR were designed using the Roche Applied science Universal Probe Library software and BLAST screened for sequence specificity. Only primers producing a single dissociation peak were used. RNA was extracted from mESCs and cDNA at a concentration of 2 ng/μl was used for analysis in a MicroAmp Optical 96-well Reaction Plate (Applied Biosystems) using SYBR green Jumpstart Taq ReadyMix (Applied Biosystems). Primer sequences: 18srRNA Forward (F) […], Reverse (R) […]; ESRRB F-[…], R-[…]; KLF4 F-[…], R-ATGTCCGCCAGGTTGAAG; NANOG F-[…], R-[…]; NR0B1 F-[…], R-[…]; NR5A2 F-[…], R-[…]; TBX3 F-[…], R-[…]; TET1 F-[…], R-[…].
# wtD3 mESCs [7] = format: cell-based; settings: 24 h, 10 μM
# Text: Cell viability was quantified using an Alexa Fluor 488 Annexin V/Dead Cell Apoptosis Kit (Invitrogen) according to the manufacturer’s instructions.
# [8] = Water solubility of peptides; format: physicochemical
# Method: All peptides were synthesised by Severn Biotech Ltd (UK) as a lyophilized powder. Peptides were solubilised to a stock solution of 100 mM in ddH20, unless otherwise stated. Peptides were tagged with a Fluorescin-5(6) molecule at the NH2-terminus, separated by a Nova linker molecule, and assessed for activity prior to use (inhibition of cell-cell contact).
# [9] = molecular target: His-tagged Recombinant Mouse E-Cadherin Fc Chimera (mouse) (UniProt P09803); experiment: SPR; as a1, E-cadherin-Fc captured on the HTE chip; peptide dissolved in 10%v/v DMSO/H2O; EpepP7R at 0.3, 1, 3, 5, 10 μM; equilibrium analysis
# [10] = molecular target: T1, His-tagged Recombinant Mouse E-Cadherin …; experiment: Biacore SPR equilibrium affinity capture analysis; settings: chain shown with the change
# [11] = transcript, mESCs, Fig. 6a summary
molecule,measurement,setting,value
NC(=O)c1ccc(-c2nc(-c3ccc4c(c3)OCO4)c(-c3ccccn3)[nH]2)cc1 [SB431542],"OCT4 protein expression, inhibitor with vehicle control",[1],maintained expression of OCT4 protein
Cc1c[nH]c(/C=C2\C(=O)Nc3ccccc32)c1CCC(=O)O [SU5402],"OCT4 protein expression, inhibitor with vehicle control",[1],maintained expression of OCT4 protein
Epep-F: Epep with fluorescein-5(6)-isothiocyanate label conjugated to the NH2-terminus via a Nova linker ({FITC′-Nova linker}-SWELYYPLRANL; reading uncertain),Binding of fluorescent-tagged peptide to wtD3 versus Ecad−/− mESCs,wtD3 and Ecad−/− mESCs,preferential binding to wtD3 ESCs
same,Effect on cell-cell contact (in words),wtD3 mESCs [2],loss of cell-cell contact
SAELYYPLRANL [EpepW2A],Kd,[3],55 µM
"SRELYYPLRANL [EpepW2R, Epep with the Trp-2 residue replaced with arginine, …]",OCT4 protein expression in the presence of SU5402,"[1]; peptide-treated wtD3 mESCs plus FGFR1 inhibitor SU5402, after 5 days",increased cell death and statistically significant loss of OCT protein expression
same,KD,[3],did not produce a strong enough response to perform equilibrium analysis
same,NANOG protein expression,[4],decreased levels of protein
same,cell viability in monolayer culture,mESCs,no significant difference in cell viability
same,pERK1/2 compared to untreated mESCs,pERK1/2 in wtD3 mESCs,decreased pERK1/2
same,Binding of fluorescent-tagged peptide to wtD3 versus Ecad−/− mESCs,wtD3 and Ecad−/− mESCs,binds specifically to E-cadherin
same,Effect on STAT3 phosphorylation (in words),[5],unaffected
same,Loss of Nanog,[6]; [11],YES
same,Loss of Nr0b1,[6]; [11],YES
same,Loss of Nr5a2,[6]; [11],YES
same,Loss of TBX3,[6]; [11],YES
same,Transcripts with decreased expression compared to control (qPCR),"[6]; wtD3 mESCs, 10 μM peptide, 24 h","Nanog, Tbx3, Nr0b1 and Nr5a2"
same,Transcripts unchanged / not inhibited (qPCR),"[6]; wtD3 mESCs, 24 h treatment",Klf4 and Esrrb
same,Effect on cell-cell contact (in words),wtD3 mESCs [2],did not induce loss of cell-cell contact
SWALYYPLRANL [EpepE3A],Kd,[3],6.9 µM
SWEAYYPLRANL [EpepL4A],Kd,[3],3.61 µM
SWELAYPLRANL [EpepY5A],Kd,[3],8.82 µM
SWELYAPLRANL [EpepY6A],Kd,[3],21.4 µM
SWELYYP [EpepΔCtm],Kd,[3],2.7 µM
same,viable population (lower left box),wtD3 mESCs [7],59.1%
SWELYYRLRANL-NH2 (C-terminus assumed) [EpepP7R],solvent required for complete solubilization,[8]; 100 mM stock,10%v/v DMSO/H2O
same,solubility in water,"[8]; lyophilized powder, stock in water",< 100 mM
same,Loss of cell-cell contact (10μM)?,"wtD3 mESCs [2]; mESCs, 10 μM, Fig. 6a summary",YES
same,Effect on cell-cell contact (in words),wtD3 mESCs [2],"Abrogation of E-cadherin mediated cell-cell contact was observed with EpepP7R (Fig. 5c and Figure S1b), although cell dissociation was reduced compared to Epep"
B1,Kd,[9],3.87 µM
B2,Kd,[10],1190 nM
